This note sets out measurements from patent US20260125679A1, “FINE-TUNING INFLAMMATION BY ALTERING 3'UTR LENGTH” (priority 2023, published 2026).

Numbered stars: 1 amine (or outer) side, 2 acyl side, 3 side chain; on linkers, the order of the positions; unused ones are H or OH. Bridge positions count the residues as written; N and C are the ends. Square brackets hold non-standard residues; d marks the D form. Peptide text beside a SMILES is read from it. I, II: the chains in the order shown. Actinocin(9to1) = Cc1c2oc3c(C)ccc(C(=O)[*:1])c3nc-2c(C(=O)[*:2])c(N)c1=O; NMeV = CN[C@H](C(=O)O)C(C)C; Sar = CNCC(=O)O

The test system of assay [1] is dsRNA in neurons, hESCs, HEK-293T and HeLa cells. The assay can be described thus: J2 staining of dsRNA after RNA polymerase inhibitor treatment. In kind it is cell-based, human. The method, then:
(§1) We transiently treated neurons with different RNA polymerase inhibitors for 12 hours prior to J2 staining to determine if RNA polymerase II (POLII) or mitochondrial RNA polymerase (POLRMT) give rise to neuronal dsRNA. The following inhibitors were used: actinomycin D (ActD), which inhibits both POLII and POLRMT (16); α-amanitin, a POLII inhibitor; and IMT1, a POLRMT-specific inhibitor (25). […] By quantifying depletion of dsRNA upon single treatments with α-amanitin or IMT1 treatment, we calculated the proportional contribution of POLII- or POLRMT-derived dsRNAs, respectively. We applied this analysis to various cell types. In HeLa cells, roughly 90% of dsRNA was derived from POLRMT. This is consistent with a prior study that concluded that roughly 95% of dsRNA in HeLa cells is located in mitochondria (16), validating our analysis. In both hESCs and HEK-293T cells, POLRMT and POLII contribute to roughly 70% and 30% of dsRNA, respectively. Conversely, in neurons, POLRMT and POLII transcripts contribute to 40% and 60% of dsRNA, respectively. […] In summary, mtRNA is the major component of dsRNA in HeLa, HEK-293T, and hESCs. However, in neurons, POLII-derived transcripts, presumably mRNAs, contribute to the bulk of the neuronal dsRNA load.
(§2) For treatment with various polymerase inhibitors, cells were treated for 12 hours prior to harvest with either ActD (10 ug/mL, Sigma), α-amanitin (25 ug/mL, Sigma), or IMT1 (1 uM, MedChemExpress).
Cells grown on glass coverslips were washed with PBS and fixed using 4% paraformaldehyde for 20 minutes at 4° C. Samples were then blocked and permeabilized in PBTG (PBS, 1% BSA, 0.1% Triton-X100, 10% goat serum) for 1 hour at room temperature. Primary antibodies were diluted in PBTG and stained overnight at 4° C. Secondary antibodies (either goat anti-mouse IgG Alexa Fluor 488 or goat anti-rabbit IgG Alexa Fluor 594, Invitrogen (A11001 and A11012)) and DAPI were diluted in PBTG and stained for 1 hour at room temperature prior to mounting. Samples were imaged on an LSM-710 confocal microscope.
Images were processed and analyzed using ImageJ. MFI of individual cells was determined by tracing cell outlines. MFI data depicts 12 individual cells taken from at least 3 independent images. For colocalization analysis, the JACop plugin was used to measure MFI of 4 independent images.

The next assay has as its system neurons and hESCs. Description: Specificity of RNA polymerase inhibitors (mRNA and mtRNA levels). It counts as cell-based, human. The note with it: 12 hours treatment. The method, then: as §1, §2
RNA was extracted directly from cell samples using the Direct-zol RNA Miniprep kit (Zymo Research). cDNA conversion was completed using the ProtoScript II First Strand cDNA Synthesis kit (New England Biolabs). PowerUp SYBR Green (Thermo Fisher Scientific) and QuantStudio 3 Real-Time PCR System were used for qRT-PCR, and all primers are listed in Table S1. RPS11 or 18S rRNA were used as a housekeeping gene for normalization.

Regarding `CC[C@H](C)[C@@H]1NC(=O)CNC(=O)[C@@H]2Cc3c([nH]c4cc(O)ccc34)[S+]([O-])C[C@@H](NC(=O)CNC1=O)C(=O)N[C@@H](CC(N)=O)C(=O)N1C[C@H](O)C[C@H]1C(=O)N[C@@H]([C@@H](C)[C@@H](O)CO)C(=O)N2` (stereo in doubt) [α-amanitin], the “proportion of dsRNA derived from POLII (depletion of dsRNA upon α-amanitin)” value is on record as about 30% in assay [1] (hESCs and HEK-293T cells); 60% in assay [1] (neurons). Moreover, in the assay with neurons and hESCs, the mRNA levels entry is “down-regulated”.
For `Cc1c2oc3c(C)ccc(C(=O)N[C@@H]4C(=O)N[C@H](C(C)C)C(=O)N5CCC[C@H]5C(=O)N(C)CC(=O)N(C)[C@@H](C(C)C)C(=O)O[C@@H]4C)c3nc-2c(C(=O)N[C@@H]2C(=O)N[C@H](C(C)C)C(=O)N3CCC[C@H]3C(=O)N(C)CC(=O)N(C)[C@@H](C(C)C)C(=O)O[C@@H]2C)c(N)c1=O` [ActD, actinomycin D] (I: T[dV]P[Sar][NMeV] / II: T[dV]P[Sar][NMeV]; ester I:1-I:C, II:1-II:C; linker I:N-II:N via Actinocin(9to1)), the “dsRNA signal (J2)” value in assay [1] (neurons and hESCs, 12 hours treatment) is “abrogate almost all dsRNA signal”. Besides, in the assay on neurons and hESCs, the mRNA levels result was “down-regulated” and the mtRNA levels entry was “down-regulated”.
As for `Cc1ccccc1-c1cc(=O)oc2cc(OC(C)C(=O)N(C)C)ccc12` (stereo not shown) [IMT1], the “proportion of dsRNA derived from POLRMT (depletion of dsRNA upon IMT1)” value is “roughly 90%” in assay [1] (HeLa cells); “roughly 70%” in assay [1] (hESCs and HEK-293T cells); 40% in assay [1] (neurons). In the assay on neurons and hESCs, the mtRNA levels entry is listed as “down-regulated”.
